Results on one substance are retold here after article PMC12305494, “Discovery of PXR Antagonist MI891 and PXR Degrader MI1013 and Their Roles in Hepatic Gene Regulation” (Journal of Medicinal Chemistry, 2025).

One data set deals with RXRα. Briefly: Western blot of RXRα in HepaRG cells. Particulars: 24 h. The data set is classed as cell-based, human. The method, then:
The harvested HepaRG cells were lysed in RIPA lysis buffer (Cat. no 89900, Thermo Scientific) containing Halt protease inhibitor cocktail inhibitors (Thermo Scientific). Protein concentration was measured using the Pierce BCA Protein Assay Kit (Cat. no. 23225, Thermo Scientific), samples were diluted in 4 × Laemmli sample buffer (Cat. no. 1610747, BioRad) supplemented with mercaptoethanol and heated at 95 °C for 5 min. Equal amounts of protein were loaded in 4–20% Mini-PROTEAN TGX Stain-Free Protein Gels (12 well. cat. no. 4561095 or 15 well, cat. no. 4568096, Bio-Rad), electrophorised, and transferred onto Trans-Blot Turbo Midi-size PVDF Membrane (cat. no. 1704273, Bio-Rad), and blocked with EveryBlot Blocking buffer for 10 min (cat. no. 12010020, Bio-Rad). […] Chemiluminescence signals were detected using SuperSignal West Femto Maximum Sensitivity Substrate (cat. no. 34096, Thermo Scientific) and visualized by the ChemiDoc MP Imaging system (Universal Hood III, #731BR02821, Bio-Rad), and the bands were quantified using β-actin (1:2000, recombinant rabbit conjugated monoclonal antibody (JF53-10), cat. no. MA5-32540, Invitrogen) as loading control with ImageJ (version 1.54g) software.
(Immunoblotting shows a protein as a band on a membrane.)

Another data set has as its system MOLT4 cells. Put plainly: Off-target quantitative global proteomics in MOLT4 cells. The class given is cell-based, human. The method, then: Cells were lysed by the addition of lysis buffer (8 M Urea, 50 mM NaCl, 50 mM […] (EPPS) pH 8.5, Protease and Phosphatase inhibitors) and homogenization by bead beating (BioSpec) for three repeats of 30 s at 2400. Bradford assay was used to determine the final protein concentration in the clarified cell lysate. 50 μg of protein for each sample was reduced, alkylated, and precipitated using methanol/chloroform as previously described and the resulting washed precipitated protein was allowed to air-dry. Precipitated protein was resuspended in 4 M Urea, 50 mM HEPES pH 7.4, followed by dilution to <1 M urea with the addition of 200 mM EPPS, pH 8. Proteins were digested overnight at 37 °C with LysC (1:50; enzyme:protein) and trypsin (1:50; enzyme:protein). Sample digests were acidified with formic acid to a pH of 2–3 prior to desalting using C18 solid-phase extraction plates (SOLA, Thermo Fisher Scientific). Desalted peptides were dried in a vacuum-centrifuge and reconstituted in 0.1% formic acid for LC-MS analysis. […]
The diaPASEF raw file processing and controlling peptide and protein level false discovery rates, assembling proteins from peptides, and protein quantification from peptides were performed using library-free analysis in DIA-NN 1.8. […]

A further data set addresses T1, PXR LBD (Homo sapiens, UniProt O75469).
T1 construct: purchased Thermo Fisher Scientific PV4839
Put plainly: LanthaScreen TR-FRET PXR competitive binding assay. The settings on record: recombinant PXR LBD, competition with tracer. The method, then:
We utilized the LanthaScreen TR-FRET CAR Coactivator Binding Assay Kit, goat (Thermo Fisher Scientific, Cat. No. PV4836), which includes GST-tagged human CAR LBD and a fluorescein-labeled PGC1α coactivator peptide. The assay was performed with slight modifications to the manufacturer’s protocol, as previously reported. […] The interaction with the PXR ligand-binding domain (LBD) was assessed using the LanthaScreen TR-FRET PXR Competitive Binding Assay (Thermo Fisher Scientific, PV4839), as previously described. This assay quantifies the ability of test compounds to displace a fluorescent PXR ligand from the receptor. Fluorescence readings were taken on a Synergy 2 Multi-Mode Microplate Reader (BioTek, Winooski, VT). The half-maximal inhibitory concentration (IC50) for PXR LBD was calculated from at least eight data points using GraphPad Prism software.

T1 sequence (O75469 146-433 limits assumed): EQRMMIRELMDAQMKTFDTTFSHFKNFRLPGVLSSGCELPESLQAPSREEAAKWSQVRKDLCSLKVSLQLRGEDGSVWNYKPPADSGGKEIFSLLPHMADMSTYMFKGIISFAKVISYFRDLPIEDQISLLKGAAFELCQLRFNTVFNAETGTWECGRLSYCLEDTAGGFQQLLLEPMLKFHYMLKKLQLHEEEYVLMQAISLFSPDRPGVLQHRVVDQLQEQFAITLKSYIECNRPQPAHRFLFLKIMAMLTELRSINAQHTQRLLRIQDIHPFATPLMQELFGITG

With “N-(4-((1-(2,5-dimethoxyphenyl)-5-methyl-1H-1,2,3-triazol-4-yl)sulfonyl)phenyl)-3-(2-(2-(2-(4-(((2-(2,6-dioxopiperidin-3-yl)-1,3-dioxoisoindolin-4-yl)amino)methyl)-1H-1,2,3-triazol-1-yl)ethoxy)ethoxy)ethoxy)propenamide [Compound 36]”, in the data set with RXRα, the RXRα degradation entry is recorded as “does not degrade”. Besides, the “IKZF1, IKZF3 and ZFP91 levels, global proteomics” value with MOLT4 cells is on record as “degradation”. For the same substance, in the data set with MOLT4 cells (2 μM of MI1013), the “GSPT1 expression, global proteomics” value is listed as “remains undegraded”. In addition, the “binding to PXR LBD compared to MI1011B and SR12813” value at PXR LBD is on record as “weaker binding to PXR LBD”.
